Data published in the OligoGym collection.
Where “and” joins values, the source holds several entries; their conditions need not be identical. Equal entries are not always repeated. After the bases stand the sugars from the 5' end (letter, count) and the backbone: PS all phosphorothioate, else s phosphorothioate and o phosphodiester by linkage. Methylation of C is not given here. e = 2'-O-(2-methoxyethyl) (MOE); k = constrained ethyl (cEt); d = 2'-deoxy (DNA)

Molecular target: APOL1
Conditions: ASO

Sequence	target mRNA inhibition (A431, 2 µM) [%]	target mRNA inhibition (A431, 0.0625 µM)	target mRNA inhibition (A431, 0.25 µM)	target mRNA inhibition (A431, 1 µM)	other results
TTCTATTAGAGGGCTA (sugars kkddddkekekkdddd, PS)	26	–	–	–	–
ATTCAGAATTTCCACT (sugars k3 d4 k3 e1 d5, PS)	89	–	–	–	–
GAGTATTGTTTTTGTG (sugars kekddddeekkddddd, PS)	90	–	–	–	–
TCCGTTCCAGGCCTCA (sugars k4 d9 k3, PS)	–	29%	44%	58%	–
GAGTATTGTTTTTGTG (sugars kkkddddkekeddddd, PS)	81	–	–	–	–
CGCAATGCTGACTTGG (sugars kkkddddkekekdddd, PS)	68	–	–	–	–
GTATTGTTTTTGTGGG (sugars kkddddkekekkdddd, PS)	39	–	–	–	–
TCCAGATGTGTTTAGG (sugars k4 d9 k3, PS)	–	82%	89%	94%	–
GGGAATTATGGAATTG (sugars k2 d4 e3 k2 d5, PS)	86	–	–	–	–
CTGAAGATTGGCTCTG (sugars kkddddkekekddddd, PS)	45	–	–	–	–
ATCAGATGGGTACTTC (sugars kkddddkdkdkddddd, PS)	78	–	–	–	–
CTTTATACCAGTGTCT (sugars k3 d10 k3, PS)	–	30%	65%	88%	–
GTTTACTTACCGGGTA (sugars k4 d9 k3, PS)	–	47% and 38%	–	84% and 63%	–
TCCGTCAATATATTCT (sugars kkddddkekekddddd, PS)	94	–	–	–	–
ACTTTACATGCACGAT (sugars kkdddddddddekeke, PS)	–	25%	58%	84%	target mRNA inhibition (A431, 0.0156 µM): 8%
GCAAGGCTAAGTTCCG (sugars k4 d9 k3, PS)	–	79%	92%	97%	–
GAGTATTGTTTTTGTG (sugars k3 d4 k3 e1 d5, PS)	88	–	–	–	–
GAATTATGGAATTGCA (sugars kkddddkekekddddd, PS)	51	–	–	–	–
GTTATGAAATTATTGG (sugars kdddddkekekddddd, PS)	73	–	–	–	–
AAAGAACTCAAGTCAG (sugars k4 d9 k3, PS)	–	–	61% and 82%	83% and 90%	–
TTATTCTCATGGTACA (sugars kkddddkekekddddd, PS)	47	–	–	–	–
ACTTCTGTTAGATACA (sugars k4 d9 k3, PS)	–	38%	73%	90%	–

Sequence	target mRNA inhibition (A431, 2 µM) [%]	target mRNA inhibition (A431, 0.0625 µM)	target mRNA inhibition (A431, 0.25 µM)	target mRNA inhibition (A431, 1 µM)	other results
TCAGATGGGTACTTCT (sugars kkkddddkekekdddd, PS)	50	–	–	–	–
GCTAATTTTCTGACTG (sugars k2 d4 e3 k2 d5, PS)	94	62%	81%	92%	target mRNA inhibition (A431, 0.0156 µM): 35%
TCTATTAGAGGGCTAG (sugars kkddddkekekkdddd, PS)	25	–	–	–	–
TTTGTAAGTGCAACCA (sugars k4 d9 k3, PS)	–	70%	91%	97% and 96% and 93%	target mRNA inhibition (A431, 0.04 µM): 37% and 23%
ATCCTGGGCGGCGACA (sugars k4 d9 k3, PS)	–	35% and 28%	62% and 50%	82% and 72%	–
CGTGTTATATTTGATC (sugars kkddddekekeddddd, PS)	76	–	–	–	–
TTCTCATGGTACAGGA (sugars kkkddddkekekdddd, PS)	54	–	–	–	–
ACGCAATGCTGACTTG (sugars kkkddddkekekdddd, PS)	71	–	–	–	–
TCATCATAGATACTCC (sugars k4 d9 k3, PS)	–	33%	67%	84%	–
TGGGAATTATGGAATT (sugars kkddddkekekddddd, PS)	87	–	–	–	–
AAGGTTGTCCAGAGCT (sugars k4 d9 k3, PS)	–	28%	27%	65%	–
TGTTATATTTGATCCT (sugars kekddddeekkddddd, PS)	94	40%	70%	89%	target mRNA inhibition (A431, 0.0156 µM): 31%
AGCTTTAAACTCAGGT (sugars k2 d4 e3 k2 d5, PS)	93	–	–	–	–
CAAGGCTTTTGATGAC (sugars k4 d9 k3, PS)	–	28%	58%	75%	–
ACTTTATACCAGTGTC (sugars k3 d4 k3 e1 d5, PS)	58	–	–	–	–
TCTATTAGAGGGCTAG (sugars k3 d4 k3 e1 d5, PS)	51	–	–	–	–
AAGTATTGCCAGCTAA (sugars kkddddekekeddddd, PS)	49	–	–	–	–
ATTCAGAATTTCCACT (sugars kkddddkdkdkddddd, PS)	79	–	–	–	–
AATTATGGAATTGCAG (sugars kdddddkekekddddd, PS)	52	–	–	–	–
CCTCATTGCAAATCCT (sugars k4 d9 k3, PS)	–	54%	84%	96%	–
GTTCAAAAGCAGCATT (sugars k3 d4 k3 e1 d5, PS)	80	–	–	–	–
